# In PMC5642474, “Pre-clinical pharmacology of AZD3965, a selective inhibitor of MCT1: DLBCL, NHL and Burkitt’s lymphoma anti-tumor activity” (Oncotarget, 2017):
# What was measured:
# [1] = molecular target: T1, MCT2 (Homo sapiens, UniProt O60669); details: read-out: AZD3965
# T1 construct: gene SLC16A7
# [2] = molecular target: T2, MCT1 (Homo sapiens, UniProt P53985); assay: SPA competition binding, […]-MCT1 ligand displacement on Jurkat cell membranes; also Ki […] on recombinant human MCT1 yeast membranes; details: read-out: AZD3965
# T2 construct: gene SLC16A1
# T2 sequence (P53985 1-500): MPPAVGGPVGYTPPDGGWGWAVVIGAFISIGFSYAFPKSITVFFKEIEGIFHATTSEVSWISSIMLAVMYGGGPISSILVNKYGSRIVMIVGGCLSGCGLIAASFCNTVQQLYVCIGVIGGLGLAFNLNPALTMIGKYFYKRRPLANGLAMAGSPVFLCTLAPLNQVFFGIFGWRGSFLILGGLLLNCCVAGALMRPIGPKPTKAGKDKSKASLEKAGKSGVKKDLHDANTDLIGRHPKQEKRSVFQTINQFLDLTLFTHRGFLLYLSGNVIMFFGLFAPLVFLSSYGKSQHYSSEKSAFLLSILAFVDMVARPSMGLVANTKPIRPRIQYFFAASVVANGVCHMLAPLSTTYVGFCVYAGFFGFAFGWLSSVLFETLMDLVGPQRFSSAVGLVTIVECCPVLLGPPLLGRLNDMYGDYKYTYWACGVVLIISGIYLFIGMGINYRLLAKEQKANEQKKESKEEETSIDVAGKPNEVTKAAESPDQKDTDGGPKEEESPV
# T1 sequence (O60669 whole entry): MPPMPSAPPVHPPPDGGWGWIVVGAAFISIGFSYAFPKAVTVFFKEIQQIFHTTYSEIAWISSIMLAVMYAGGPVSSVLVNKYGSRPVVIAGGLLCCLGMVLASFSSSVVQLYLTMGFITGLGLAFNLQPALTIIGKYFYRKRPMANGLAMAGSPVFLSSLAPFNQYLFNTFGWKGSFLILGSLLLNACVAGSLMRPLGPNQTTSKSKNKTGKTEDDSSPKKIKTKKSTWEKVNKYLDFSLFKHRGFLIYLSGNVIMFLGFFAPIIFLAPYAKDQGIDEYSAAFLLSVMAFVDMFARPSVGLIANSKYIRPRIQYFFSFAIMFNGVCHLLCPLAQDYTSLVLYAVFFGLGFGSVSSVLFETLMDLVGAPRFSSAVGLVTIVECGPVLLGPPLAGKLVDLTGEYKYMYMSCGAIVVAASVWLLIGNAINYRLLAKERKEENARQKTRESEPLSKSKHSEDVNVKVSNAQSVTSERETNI
smiles,measurement,setting,value
Cc1[nH]nc(C(F)(F)F)c1Cc1sc2c(c1C(=O)N1C[C@](C)(O)CO1)c(=O)n(C)c(=O)n2C(C)C [AZD3965],Ki,[1],20 nM
same,Ki,[2],1.6 nM
